The target of this assay is T1, Na^+ -dependent bile acid transport system (Oryctolagus cuniculus, UniProt Q28727).
T1 construct: Preparation of brush-border membrane vesicles from the ileum of rabbits; from tissue; host or cells: brush-border membrane vesicles from the terminal small intestine (ileum) of male New Zealand rabbits
T1 sequence (Q28727 1-347): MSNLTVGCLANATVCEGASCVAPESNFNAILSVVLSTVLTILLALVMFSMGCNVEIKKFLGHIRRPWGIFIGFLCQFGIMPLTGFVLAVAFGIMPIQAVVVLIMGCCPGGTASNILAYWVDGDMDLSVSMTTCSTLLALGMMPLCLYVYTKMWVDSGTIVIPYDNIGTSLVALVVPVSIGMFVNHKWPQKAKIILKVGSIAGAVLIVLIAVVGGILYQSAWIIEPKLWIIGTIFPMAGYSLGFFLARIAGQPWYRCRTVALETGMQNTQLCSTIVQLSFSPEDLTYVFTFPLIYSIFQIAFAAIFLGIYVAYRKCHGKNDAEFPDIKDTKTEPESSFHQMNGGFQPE
In words: Inhibition of Na^+ -dependent [^3 H]taurocholate absorption into brush-border membrane vesicles of the ileum. The class given is biochemical, rabbit. As to conditions: taurocholate 50 μM, pH 7.4, customarily 1 min. How it is done: The pharmacological data include a series of -tests in which the interaction of the compounds according to the invention with the intestinal bile acid transport system was investigated in the terminal small intestine:
1. Preparation of brush-border membrane vesicles from the ileum of rabbits
The preparation of brush-border membrane vesicles from the intestinal cells of the small intestine was carried out using the so-called Mg^2+ precipitation method. Male New Zealand rabbits (2-2.5 kg body weight) were sacrificed by intravenous injection of 0.5 ml of an aqueous solution of 2.5 mg of tetracaine HCl, 100 T 61® and 25 mg of mebezonium iodide. The small intestine was removed and rinsed with ice-cold physiological saline solution. The terminal […] of the small intestine (measured in the oral-rectal direction, i.e. the terminall ileum, which contains the active Na^+ -dependent bile acid transport system) were used for preparation of the brush-border membrane vesicles. The intestines were frozen at -80° C. under nitrogen in plastic bags. The frozen intestines were thawed in a water bath at 30° C. in order to prepare the membrane vesicles. The mucosa was scraped off and suspended in 60 ml of ice-cold 12 mM trio/HCl buffer (pH 7.1)/300 mM mannitol, 5 mM EGTA/10 mg/l of phenylmethylsulfonyl fluoride/1 mg/1 of soybean trypsin inhibitor (32 U/mg)/0.5 mg/l of bovine lung trypsin inhibitor (193 U/mg)/0.5 mg/l of bacitracin. After diluting to 300 ml with ice-cold distilled water, the suspension was homogenized with ice-cooling for 3 minutes at 75% of maximum power using an Ultraturrax (18 rod, IKA Werk Staufen, Federal Republic of Germany). After addition of 3 ml of 1M MgCl2 solution (final Concentration 10 mM), the homogenate was allowed to stand at 0° C. for exactly 1 minute. As a result of addition of Mg^2+, the cell membranes aggregate and precipitate with the exception of the brush-border membranes. After centrifugation at 3,000×g (5,000 rpm, SS-34 rotor) for 15 minutes, the precipitate is discarded and the supernatant which contains the brush-border membranes is centrifuged at 26,700×g (15,000 rpm, SS-34 rotor) for 30 minutes. The supernatant was discarded, and the precipitate was rehomogenized in 60 ml of 12 mM tris/HCl buffer (pH 7.1)/60 mM mannitol, 5 mM EGTA using a Potter Elvejhem homogenizer (Braun Melsungen, 900 rpm, 10 strokes). After addition of 0.1 ml of 1M MgCl2 solution and an incubation time of 15 minutes at 0° C., the mixture was again centrifuged at 3,000×g for 15 minutes. The supernatant was then again centrifuged at […] ( 15,000 rpm, SS-34 rotor) for 30 minutes. The precipitate was taken up in 30 ml of 10 mM tris/hepes buffer (pH 7.4) /300 mM mannitol and homogeneously resuspended by 20 strokes in a Potter Elvejhem homogenizer at 1,000 rpm. After centrifugation at 48,000×g (20,000 rpm, SS-34 rotor) for 30 minutes, the precipitate was taken up in 0.5 to 2 ml of tris/hepes buffer (pH 7.4)/280 mM mannitol (final concentration 20 mg/ml) and resuspended with the aid of a tuberculin syringe using a 27 gauge needle. The vesicles were either used immediately after preparation for transport investigations or stored at -196° C. in liquid nitrogen in 4 mg portions.
2. Inhibition of Na^+ -dependent [^3 H]taurocholate absorption into brush-border membrane vesicles of the ileum
The absorption of substrates into brush-border membrane vesicles was determined by means of the so-called membrane filtration technique. 10 μl of the vesicle suspension (100 μg of protein) were pipetted on the wall of a polystyrene incubation tube (11×70 mm) as a drop which contained the incubation medium together with the corresponding ligands (90 μl). […]

Setting [1] is: IC50, [^3 H]taurocholate absorption, rabbit ileum brush-border membrane vesicles.
[2] abbreviates: IC50 Na, Na^+ -dependent transport component (difference between absorption in Na-T-B and K-T-B).
Setting [3] is: Na^+ -dependent transport component (difference between absorption in Na-T-B and K-T-B), read-out: IC50 Na.
Where [4] appears, read: [^3 H]taurocholate absorption, rabbit ileum brush-border membrane vesicles, read-out: IC50.

Where two headings read alike, the source gives them in different places.

A word on the IC50: it is the concentration that gives 50% inhibition.

Consider `C[C@H](CCC(=O)NCCCNC(=O)CCC(=O)NCCO[C@H]1CC[C@@]2(C)[C@@H](C1)C[C@@H](O)[C@@H]1[C@@H]2C[C@H](O)[C@]2(C)[C@@H]([C@H](C)CCC(=O)NCCS(=O)(=O)O)CC[C@@H]12)[C@H]1CC[C@H]2[C@@H]3[C@H](O)C[C@@H]4C[C@H](OCc5ccccc5)CC[C@]4(C)[C@H]3C[C@H](O)[C@]12C` [172 (taurine conj.)], for which the IC50 came out at 32 µM under setting [1] and 20 µM under setting [2].
`C[C@H](CCC(=O)NCC(=O)O)[C@H]1CC[C@H]2[C@@H]3[C@H](O)C[C@@H]4C[C@@H](OCCNC(=O)CCC(=O)NCCCNC(=O)CC[C@@H](C)[C@H]5CC[C@H]6[C@@H]7[C@H](O)C[C@@H]8C[C@H](OCc9ccccc9)CC[C@]8(C)[C@H]7C[C@H](O)[C@]56C)CC[C@]4(C)[C@H]3CC[C@]12C` [191 (glycine conj.)] displayed an IC50 under setting [1] of 27 µM and an IC50 under setting [2] of 18 µM.
The like results for `C[C@H](CCC(=O)NCCS(=O)(=O)O)[C@H]1CC[C@H]2[C@@H]3[C@H](O)C[C@@H]4C[C@@H](OCCNC(=O)CCC(=O)NCCCNC(=O)CC[C@@H](C)[C@H]5CC[C@H]6[C@@H]7[C@H](O)C[C@@H]8C[C@H](OCc9ccccc9)CC[C@]8(C)[C@H]7C[C@H](O)[C@]56C)CC[C@]4(C)[C@H]3CC[C@]12C` [191 (taurine conj.)] were, in that order, 18 µM and 14 µM.
With `C[C@H](CCC(=O)NCCO[C@H]1CC[C@@]2(C)[C@@H](C1)C[C@@H](O)[C@@H]1[C@@H]2C[C@H](O)[C@]2(C)[C@@H]([C@H](C)CCC(=O)NCC(=O)O)CC[C@@H]12)[C@H]1CC[C@H]2[C@@H]3[C@H](O)C[C@@H]4C[C@H](O)CC[C@]4(C)[C@H]3C[C@H](O)[C@]12C` [368 (glycine conj.)], 48 µM corresponded to half-maximal inhibition under setting [1] (IC50) and the IC50 under setting [2] came to 16 µM.
In the same order, the values of `C[C@H](CCC(=O)NCCO[C@H]1CC[C@@]2(C)[C@@H](C1)C[C@@H](O)[C@@H]1[C@@H]2C[C@H](O)[C@]2(C)[C@@H]([C@H](C)CCC(=O)NCCS(=O)(=O)O)CC[C@@H]12)[C@H]1CC[C@H]2[C@@H]3[C@H](O)C[C@@H]4C[C@H](OCc5ccccc5)CC[C@]4(C)[C@H]3C[C@H](O)[C@]12C` [369 (taurine conj.)] are 50 µM and 18 µM.
On to `C[C@H](CCC(=O)O)[C@H]1CC[C@H]2[C@@H]3[C@H](O)C[C@@H]4C[C@@H](OCCNC(=O)CCC(=O)NCCCNC(=O)CC[C@@H](C)[C@H]5CC[C@H]6[C@@H]7[C@H](O)C[C@@H]8C[C@H](OC(c9ccccc9)c9ccccc9)CC[C@]8(C)[C@H]7C[C@H](O)[C@]56C)CC[C@]4(C)[C@H]3C[C@H](O)[C@]12C` [Example 170], for which the half-inhibitory concentration (IC50) runs as follows: under setting [3], 14 µM; under setting [4], 25 µM.
Take `C[C@H](CCC(=O)O)[C@H]1CC[C@H]2[C@@H]3[C@H](O)C[C@@H]4C[C@@H](OCCNC(=O)CCC(=O)NCCCNC(=O)CC[C@@H](C)[C@H]5CC[C@H]6[C@@H]7[C@H](O)C[C@@H]8C[C@H](OCc9ccccc9)CC[C@]8(C)[C@H]7C[C@H](O)[C@]56C)CC[C@]4(C)[C@H]3CC[C@]12C` [Example 191]: the IC50 under setting [3] came to 29 µM and the half-inhibitory concentration (IC50) under setting [4] worked out at 58 µM.
With `C[C@H](CCC(=O)NCCO[C@H]1CC[C@@]2(C)[C@@H](C1)C[C@@H](O)[C@@H]1[C@@H]2C[C@H](O)[C@]2(C)[C@@H]([C@H](C)CCC(=O)O)CC[C@@H]12)[C@H]1CC[C@H]2[C@@H]3[C@H](O)C[C@@H]4C[C@H](O)CC[C@]4(C)[C@H]3C[C@H](O)[C@]12C` [Example 368], the IC50 reads like this: under setting [3], 18 µM; under setting [4], 45 µM.
The like results for `C[C@H](CCC(=O)NCCO[C@H]1CC[C@@]2(C)[C@@H](C1)C[C@@H](O)[C@@H]1[C@@H]2C[C@H](O)[C@]2(C)[C@@H]([C@H](C)CCC(=O)O)CC[C@@H]12)[C@H]1CC[C@H]2[C@@H]3[C@H](O)C[C@@H]4C[C@H](OCc5ccccc5)CC[C@]4(C)[C@H]3C[C@H](O)[C@]12C` [Example 369] were, in that order, 20 µM and 55 µM.
For the molecule `C[C@H](CCC(=O)NCCS(=O)(=O)O)[C@H]1CC[C@H]2[C@@H]3[C@H](O)C[C@@H]4C[C@@H](OCCNC(=O)CCC(=O)NCCCNC(=O)CC[C@@H](C)[C@H]5CC[C@H]6[C@@H]7[C@H](O)C[C@@H]8C[C@H](OC(c9ccccc9)c9ccccc9)CC[C@]8(C)[C@H]7C[C@H](O)[C@]56C)CC[C@]4(C)[C@H]3C[C@H](O)[C@]12C` [Example 527], the IC50 reads like this: under setting [3], 10 µM; under setting [4], 20 µM.
In the same order, the values of `C[C@H](CCC(=O)NCC(=O)O)[C@H]1CC[C@H]2[C@@H]3[C@H](O)C[C@@H]4C[C@@H](OCCNC(=O)CCC(=O)NCCCNC(=O)CC[C@@H](C)[C@H]5CC[C@H]6[C@@H]7[C@H](O)C[C@@H]8C[C@H](OC(c9ccccc9)c9ccccc9)CC[C@]8(C)[C@H]7C[C@H](O)[C@]56C)CC[C@]4(C)[C@H]3C[C@H](O)[C@]12C` [Example 528] are 16 µM and 26 µM.
As for `COC(=O)CC[C@@H](C)[C@H]1CC[C@H]2[C@@H]3[C@H](O)C[C@@H]4C[C@@H](OCCNC(=O)CCC(=O)NCCO[C@H]5CC[C@@]6(C)[C@@H](C5)C[C@@H](O)[C@@H]5[C@@H]6C[C@H](O)[C@]6(C)[C@@H]([C@H](C)CCC(=O)OC)CC[C@@H]56)CC[C@]4(C)[C@H]3C[C@H](O)[C@]12C` [Example 531], the IC50 runs as follows: under setting [3], 18 µM; under setting [4], greater than 50 µM.
The like results for `C[C@H](CCC(=O)O)[C@H]1CC[C@H]2[C@@H]3[C@H](O)C[C@@H]4C[C@@H](OCCNC(=O)CCC(=O)NCCO[C@H]5CC[C@@]6(C)[C@@H](C5)C[C@@H](O)[C@@H]5[C@@H]6C[C@H](O)[C@]6(C)[C@@H]([C@H](C)CCC(=O)O)CC[C@@H]56)CC[C@]4(C)[C@H]3C[C@H](O)[C@]12C` [Example 532] were, in that order, 10 µM and 30 µM.

The record behind these values is US5250524A, “Bile acid derivatives, process for their preparation and use of these compounds as pharmaceuticals” (Hoechst Aktiengesellschaft, priority 1990, dated 1993).
